This is an account of results in PubChem BioAssay AID280 (DTP/NCI, 2004).

“And” between values parts separate entries of the source, which are not always exact repeats. Identical values can stand only once. Inconclusive results and toxic doses are left out.

In this test the test system is nude mice, LOX melanoma ip, survival T/C. Nature of the test: NCI In Vivo Anticancer Drug Screen. Data for tumor model Human Amelanotic Melanoma (LOX) (intraperitoneal) in NU/NU BALB/C (nude) mice. As to conditions: endpoint: median survival time, schedule: Q04DX003 (ip), higher = longer survival. The procedure: The antitumor activity of compounds was measured in mice bearing transplantable tumors. Survival or tumor size were measured and the results are expressed as the measurement made in the treated group (T) divided by the measurement made in the vehicle treated control group (C). The tumor model used in this assay is Human Amelanotic Melanoma (LOX) (intraperitoneal) in NU/NU BALB/C (nude) mice

[1] abbreviates: dose: 75.0 mg/kg/injection, vehicle: saline with Tween-80.
The mark [2] stands for this setting: dose: 150.0 mg/kg/injection, vehicle: saline with Tween-80.
[3] abbreviates: dose: 300.0 mg/kg/injection, vehicle: saline with Tween-80.
Where [4] appears, read: dose: 25.0 mg/kg/injection, vehicle: saline with Tween-80.
The mark [5] stands for this setting: dose: 600.0 mg/kg/injection, vehicle: saline with Tween-80.
The mark [6] stands for this setting: dose: 1200.0 mg/kg/injection, vehicle: saline with Tween-80.

`CC(=O)Nc1ccc(Nc2ccc(C(=C3C=CC(=[N+](C)CCC#N)C=C3)c3ccc(N(C)CCC#N)cc3)cc2)cc1`: the T/C reads like this: (dose: 6.25 mg/kg/injection, vehicle: suspension in saline) 101 % of control; (dose: 12.5 mg/kg/injection, vehicle: suspension in saline) 111 % of control; (dose: 25.0 mg/kg/injection, vehicle: suspension in saline) 116 % of control; (dose: 30.0 mg/kg/injection, vehicle: suspension in saline) 120 % of control; (dose: 50.0 mg/kg/injection, vehicle: suspension in saline) 111 % of control and 121 % of control; (dose: 83.0 mg/kg/injection, vehicle: suspension in saline) 110 % of control. In addition, where the note is “dose: 100.0 mg/kg/injection, vehicle: suspension in saline”, the T/C is 124 % of control.
Take `CNC(=O)OCc1nc(SC)n(C)c1COC(=O)NC`: the T/C is 179 % of control (dose: 51.2 mg/kg/injection, vehicle: water); 156 % of control (dose: 57.5 mg/kg/injection, vehicle: saline); 229 % of control (dose: 76.7 mg/kg/injection, vehicle: water); 234 % of control (dose: 115.0 mg/kg/injection, vehicle: saline); 354 % of control (dose: 115.0 mg/kg/injection, vehicle: water).
With `Cn1c2ccccc2c2ccc3c(c21)C(=O)C=CC3=O`, the T/C (dose: 9.38 mg/kg/injection, vehicle: saline with Tween-80) is 90 % of control; the T/C (dose: 18.75 mg/kg/injection, vehicle: saline with Tween-80) was 94 % of control; the T/C (dose: 37.5 mg/kg/injection, vehicle: saline with Tween-80) was 88 % of control; the T/C under setting [1] was 112 % of control; the T/C under setting [2] is 100 % of control.
As to `CCOc1ccc(C(C)c2cc3c(cc2OC)OCO3)cc1` (stereo unspecified), the T/C was 177 % of control (dose: 150.0 mg/kg/injection, vehicle: distilled water + Tween-80); 161 % of control and 163 % of control (dose: 300.0 mg/kg/injection, vehicle: distilled water + Tween-80); 226 % of control and 252 % of control (dose: 600.0 mg/kg/injection, vehicle: distilled water + Tween-80).
On to `NCCCC(N)(C(=O)O)C(F)F` (stereo unspecified), for which the T/C was 112 % of control (dose: 75.0 mg/kg/injection, vehicle: distilled water + alcohol); 111 % of control (dose: 150.0 mg/kg/injection, vehicle: distilled water + alcohol); 101 % of control (dose: 300.0 mg/kg/injection, vehicle: distilled water + alcohol); 97 % of control (dose: 600.0 mg/kg/injection, vehicle: distilled water + alcohol); 106 % of control (dose: 1200.0 mg/kg/injection, vehicle: distilled water + alcohol).
For the compound `[Na+]`, the T/C (dose: 75.0 mg/kg/injection, vehicle: water) was 104 % of control; the T/C (dose: 150.0 mg/kg/injection, vehicle: water) was 95 % of control; the T/C (dose: 300.0 mg/kg/injection, vehicle: water) is 108 % of control; the T/C (dose: 1200.0 mg/kg/injection, vehicle: water) is 99 % of control.
Regarding `CCOC(=O)/C=C/C(=O)N1CCN(C(=O)/C=C/C(=O)OCC)C(C)C1` (stereo unspecified), the T/C is, setting by setting: (dose: 75.0 mg/kg/injection, vehicle: Klucel (hydroxypropylcellulose) (HPC)) 117 % of control; (dose: 150.0 mg/kg/injection, vehicle: Klucel (hydroxypropylcellulose) (HPC)) 109 % of control; (dose: 300.0 mg/kg/injection, vehicle: Klucel (hydroxypropylcellulose) (HPC)) 108 % of control; (dose: 600.0 mg/kg/injection, vehicle: Klucel (hydroxypropylcellulose) (HPC)) 116 % of control.
`CC(=O)OCC1OC(n2ncc(=O)[nH]c2=O)C(OC(C)=O)C1OC(C)=O` (stereo unspecified): the T/C was 99 % of control (dose: 75.0 mg/kg/injection, vehicle: suspension in saline); 105 % of control (dose: 150.0 mg/kg/injection, vehicle: suspension in saline); 104 % of control (dose: 300.0 mg/kg/injection, vehicle: suspension in saline); 99 % of control (dose: 600.0 mg/kg/injection, vehicle: suspension in saline); 95 % of control (dose: 1200.0 mg/kg/injection, vehicle: suspension in saline).
Regarding `CCC(c1ccc(O)cc1)C(CC)c1ccc(OCCN)cc1` (stereo unspecified), the T/C reads like this: (dose: 62.5 mg/kg/injection, vehicle: saline with Tween-80) 88 % of control; (dose: 125.0 mg/kg/injection, vehicle: saline with Tween-80) 104 % of control; (dose: 250.0 mg/kg/injection, vehicle: saline with Tween-80) 93 % of control; (dose: 500.0 mg/kg/injection, vehicle: saline with Tween-80) 92 % of control; (dose: 1000.0 mg/kg/injection, vehicle: saline with Tween-80) 93 % of control.
Turning to `S=c1sc2ccccc2n1CN1CCOCC1`, the T/C is 102 % of control under setting [1] and 90 % of control under setting [3].
For the compound `COC1=CCC23C(=O)C=CC(=O)C2(C1)C(=O)c1ccccc1C3=O` (stereo unspecified), the T/C was 101 % of control (dose: 6.25 mg/kg/injection, vehicle: saline with Tween-80); 100 % of control (dose: 12.5 mg/kg/injection, vehicle: saline with Tween-80); 94 % of control under setting [4].
Take `O=C(NNC(=O)c1cccc(C(=O)NNC(=O)c2ccc(Cl)c(Cl)c2)n1)c1ccc(Cl)c(Cl)c1`: the T/C under setting [4] was 103 % of control; the T/C (dose: 50.0 mg/kg/injection, vehicle: saline with Tween-80) was 119 % of control; the T/C under setting [1] is 104 % of control; the T/C (dose: 100.0 mg/kg/injection, vehicle: saline with Tween-80) was 119 % of control; the T/C under setting [2] is 110 % of control; the T/C (dose: 200.0 mg/kg/injection, vehicle: saline with Tween-80) was 122 % of control. The T/C under setting [3] is 204 % of control; the T/C (dose: 400.0 mg/kg/injection, vehicle: saline with Tween-80) was 116 % of control; the T/C under setting [5] was 167 % of control; the T/C under setting [6] is 164 % of control.
For the compound `CCOC(=O)N(C)N=NC`, the T/C was 108 % of control and 109 % of control (dose: 7.5 mg/kg/injection, vehicle: saline); 107 % of control and 114 % of control (2×) (dose: 15.0 mg/kg/injection, vehicle: saline); 121 % of control (dose: 30.0 mg/kg/injection, vehicle: saline); 194 % of control (dose: 60.0 mg/kg/injection, vehicle: saline); 172 % of control and 191 % of control and 205 % of control (dose: 120.0 mg/kg/injection, vehicle: saline).
For `Cc1cc(Br)c2nsnc2c1[N+](=O)[O-]`, the T/C is 112 % of control under setting [1]; 103 % of control under setting [2]; 112 % of control under setting [3]; 124 % of control under setting [5]; 114 % of control under setting [6].
For the compound `COc1cc(C(C)c2cc3c(cc2OCCO)OCO3)cc(OC)c1OC` (stereo unspecified), the T/C was 114 % of control under setting [1], 94 % of control under setting [2] and 152 % of control under setting [5].
